# Reference: publication PMC2377083, “IDN 5390: an oral taxane candidate for protracted treatment schedules” (British Journal of Cancer, 2003)
# Like-named read-outs stand apart in the source and are kept apart here.
# Columns and labels:
# A2780/DDP cells = assay: Antiproliferative activity, A2780/DDP; type: cell-based; details: Homo sapiens, 72 h treatment, cell counting, mean±s.d., three experiments
# Protocol: Drugs were dissolved in DMSO and freshly diluted in medium before use. The antiproliferative activity was evaluated on A2780 (human ovarian carcinoma) and its derived drug-resistant cell lines (A2780/DX, A2780/DDP), IGROV-1/Pt1 (human ovarian carcinoma), GBM (human glioblastoma) and MX-1 (human mammary carcinoma). All cell lines, except MX-1, were maintained in RPMI 1640 (Bio-Whittaker, Verviers, Belgium) supplemented with 10% fetal calf serum (Life Technologies, Gaithersburg, MD, USA). MX-1 cells were maintained in McCoy's medium (Life Technologies, Gaithersburg, MD, USA) supplemented with 10% fetal calf serum. For experiments, all cell lines were seeded into six-well plates in duplicate and treated, 24 or 72 h (only MX-1 cells) after seeding, with solvent or different concentrations of taxanes. Adherent cells were counted 72 h after the beginning of treatment, by a cell counter (Coulter Electronics, Luton, UK) or detected by the Sulforhodamine B colorimetric assay (only GBM cells). The IC50 was defined as the drug concentration causing a 50% decrease in cell number over that of untreated controls.
# [1] = Pharmacokinetic study, plasma levels by HPLC; type: in vivo, CDF1 mice; details: female, CDF1, mouse
# Protocol: In order to assess the bioavailability of IDN 5390, a pharmaco-kinetic study was performed in female CDF1 mice (Charles River Italia, Calco, Italy). IDN 5390, formulated in Polysorbate 80 and diluted in 0.9% NaCl solution, immediately before treatment, was administered p.o. or i.v. at the dose of 120 mg kg^−1. Blood samples were taken (four mice per group) from the retro-orbital plexus, under diethylether anaesthesia at 5, 15 and 30 min and at 1, 2 and 4 h.
# IDN 5390 levels were determined in plasma according to the high-performance liquid chromatography (HPLC) method of [Zaffaroni et al (2002)]. Briefly, plasma samples (0.4 ml) were spiked with 1 μg IDN 5517, as internal standard, and with 0.7 ml of 0.2 M ammonium acetate buffer, pH 4.5, and extracted by solid-phase extraction on a cyano cartridge (Waters, Millford, MA, USA). HPLC analyses were carried out on a Symmetry C18 column (3.5 μm, 4.6 × 150 mm; Waters, London, UK), with UV detection of the analytes at 227 nm. The lower limit of quantitation was of 50 ng ml^−1.
# Pharmacokinetic parameters were calculated by using a nonlinear fitting program ([Sacchi-Landriani et al, 1983]). The experimental areas under the concentration–time curve (AUCexp) of IDN 5390 were calculated by the trapezoidal rule. Extrapolations to infinity (AUCinf) were obtained by dividing the concentration at the last experimental points by the elimination constant (Ke). The terminal half-lives (T1/2) were calculated using the formula T1/2=0.693/Ke. Clearance (Clp) and volume of distribution (Vd) were obtained from the following relation: Clp=Dose/AUCext and Vd=Clp/Ke, respectively. The bioavailability (F) was derived from the ratio: F=AUCp.o./AUCi.v. 100.
compound,measurement,setting,value
"CC(=O)O[C@@]1([C@@H]2/C(C)=C(/O)C(=O)C3=C(C)[C@@H](OC(=O)[C@H](O)[C@H](CC(C)C)NC(=O)OC(C)(C)C)C[C@@](O)([C@H]2OC(=O)c2ccccc2)C3(C)C)CO[C@@H]1CCO [IDN 5390, 13-(N-Boc-β-isobutylisoserinyl)-10β-dehydro-C-seco-10-deacetylbaccatin III]",IC50,A2780/DDP cells,0.0318 ± 0.0055 µg/mL
same,bioavailability,"[1]; in vivo, bioavailability (F)",27.3%
same,Vd,"[1]; in vivo, iv",0.21
same,AUC,"[1]; in vivo, iv, 120 mg/kg",125000 ng·h/mL
same,AUC(0-inf),"[1]; in vivo, iv, 120 mg/kg",128000 ng·h/mL
same,Cmax,"[1]; in vivo, iv, 120 mg/kg",161 µg/mL
same,Tmax,"[1]; in vivo, iv, 120 mg/kg",5 min
same,clearance,"[1]; in vivo, iv, 120 mg/kg",15.5 mL/min/kg
same,half-life,"[1]; in vivo, iv, 120 mg/kg",54 min
same,AUC,"[1]; in vivo, po, 120 mg/kg",34400 ng·h/mL
same,AUC(0-inf),"[1]; in vivo, po, 120 mg/kg",35100 ng·h/mL
same,Cmax,"[1]; in vivo, po, 120 mg/kg",25 µg/mL
same,Tmax,"[1]; in vivo, po, 120 mg/kg",30 min
same,half-life,"[1]; in vivo, po, 120 mg/kg",42 min
same,half-life,"[1]; plasma, 120 mg kg^−1, in mice, read-out: T1/2",< 60 min
